Source: patent US12466839B2, “Allosteric AKT inhibitors for use in the treatment of Hereditary Hemorrhagic Telangiectasia” (VADERIS THERAPEUTICS AG, priority 2020, dated 2025)

What was measured:
V1A = molecular target: T1, V1A (Homo sapiens, UniProt P37288); test: Millipore Drug Discovery Safety and Liability Panel; assay type: cell-based
T1 construct: Millipore

D5 = molecular target: T2, D5 (Homo sapiens, UniProt P21918); test: as above; assay type: cell-based
T2 construct: purchased Millipore

ADRB1 = molecular target: T3, ADRB1 (Homo sapiens, UniProt P08588); test: as above; assay type: cell-based
T3 construct: purchased Millipore

M2 = molecular target: T4, M2 (Homo sapiens, UniProt P08172); test: as above; assay type: cell-based
T4 construct: purchased Millipore

GAL1 = molecular target: T5, GAL1 (Homo sapiens, UniProt P47211); test: as above; assay type: cell-based
T5 construct: purchased Millipore

LPA1 = molecular target: T6, LPA1 (Homo sapiens, UniProt Q92633); test: as above; assay type: cell-based
T6 construct: purchased Millipore

BB2 = molecular target: T7, BB2 (Homo sapiens, UniProt P30550); test: as above; assay type: cell-based
T7 construct: purchased Millipore

Kv1.5 = Kv1.5 (Homo sapiens, UniProt P22460); test: Cardiac ion channel profile; assay type: cell-based
S1P3 = molecular target: T8, S1P3 (Homo sapiens, UniProt Q99500); test: Millipore Drug Discovery Safety and Liability Panel; assay type: cell-based
T8 construct: Millipore

Thrombin-activated PARs = test: as above; assay type: cell-based; conditions: 10 μM
full length AKT1 = full length AKT1 (Homo sapiens, UniProt P31749); test: Biochemical kinase assay
CCK2 = molecular target: T9, CCK2 (Homo sapiens, UniProt P32239); test: Millipore Drug Discovery Safety and Liability Panel; assay type: cell-based
T9 construct: purchased Millipore

ETA = molecular target: T10, ETA (Homo sapiens, UniProt P25101); test: as above; assay type: cell-based
T10 construct: purchased Millipore

LPA3 = molecular target: T11, LPA3 (Homo sapiens, UniProt Q9UBY5); test: as above; assay type: cell-based
T11 construct: purchased Millipore

[1] = test system: AKT kinase in Pi3Kα or PTEN mutant cells lines (e.g. MCF7, BT474 or LnCAP); test: AKT kinase inhibition in Pi3Kα or PTEN mutant cell lines; assay type: cell-based; conditions: read-out: IC50 range for AKT kinase inhibition
A3 = molecular target: T12, A3 (Homo sapiens, UniProt P0DMS8); test: Millipore Drug Discovery Safety and Liability Panel; assay type: cell-based
T12 construct: purchased Millipore

P2Y1 = molecular target: T13, P2Y1 (Homo sapiens, UniProt P47900); test: as above; assay type: cell-based
T13 construct: Millipore

MCF7 tumor cells = test: IC50 in MCF7 tumor cells in vitro; assay type: cell-based; conditions: Homo sapiens
AKT2 = AKT2 (Homo sapiens, UniProt P31751); test: Panel of 450 kinases; assay type: biochemical
5-HT2A = molecular target: T14, 5-HT2A (Homo sapiens, UniProt P28223); test: Millipore Drug Discovery Safety and Liability Panel; assay type: cell-based
T14 construct: purchased Millipore

OX1 = molecular target: T15, OX1 (Homo sapiens, UniProt O43613); test: as above; assay type: cell-based
T15 construct: Millipore

GPR14 = molecular target: T16, GPR14 (Homo sapiens, UniProt Q9UKP6); test: as above; assay type: cell-based
T16 construct: purchased Millipore

CB2 = molecular target: T17, CB2 (Homo sapiens, UniProt P34972); test: as above; assay type: cell-based
T17 construct: purchased Millipore

A2A = molecular target: T18, A2A (Homo sapiens, UniProt P29274); test: as above; assay type: cell-based
T18 construct: purchased Millipore

AKT3 = AKT3 (Homo sapiens, UniProt Q9Y243); test: Panel of 450 kinases; assay type: biochemical
minK (Homo sapiens) = test: Cardiac ion channel profile; assay type: cell-based
H1 = molecular target: T19, H1 (Homo sapiens, UniProt P35367); test: Millipore Drug Discovery Safety and Liability Panel; assay type: cell-based
T19 construct: purchased Millipore

BDKR2 = molecular target: T20, BDKR2 (Homo sapiens, UniProt P30411); test: as above; assay type: cell-based
T20 construct: purchased Millipore

p38α = p38α (Homo sapiens, UniProt Q16539); test: Panel of 450 kinases and 10-point titration curve; assay type: biochemical
FPR1 = molecular target: T21, FPR1 (Homo sapiens, UniProt P21462); test: Millipore Drug Discovery Safety and Liability Panel; assay type: cell-based
T21 construct: purchased Millipore

DP = molecular target: T22, DP (Homo sapiens, UniProt Q13258); test: as above; assay type: cell-based
T22 construct: purchased Millipore

[2] = read-out: ANTAGONIST mean % inhibition
[3] = read-out: AGONIST mean % increase in activity

T10 sequence (P25101 21-427): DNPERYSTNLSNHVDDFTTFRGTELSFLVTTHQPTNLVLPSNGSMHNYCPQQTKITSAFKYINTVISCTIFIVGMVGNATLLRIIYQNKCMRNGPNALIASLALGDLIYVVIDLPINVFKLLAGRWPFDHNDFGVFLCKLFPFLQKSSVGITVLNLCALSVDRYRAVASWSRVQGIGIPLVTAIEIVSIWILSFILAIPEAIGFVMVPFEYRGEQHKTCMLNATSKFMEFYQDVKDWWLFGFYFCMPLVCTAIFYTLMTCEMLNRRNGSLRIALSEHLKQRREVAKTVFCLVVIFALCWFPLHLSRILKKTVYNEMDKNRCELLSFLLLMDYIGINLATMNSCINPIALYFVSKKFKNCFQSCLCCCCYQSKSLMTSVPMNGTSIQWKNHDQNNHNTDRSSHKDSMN
T7 sequence (P30550 whole entry): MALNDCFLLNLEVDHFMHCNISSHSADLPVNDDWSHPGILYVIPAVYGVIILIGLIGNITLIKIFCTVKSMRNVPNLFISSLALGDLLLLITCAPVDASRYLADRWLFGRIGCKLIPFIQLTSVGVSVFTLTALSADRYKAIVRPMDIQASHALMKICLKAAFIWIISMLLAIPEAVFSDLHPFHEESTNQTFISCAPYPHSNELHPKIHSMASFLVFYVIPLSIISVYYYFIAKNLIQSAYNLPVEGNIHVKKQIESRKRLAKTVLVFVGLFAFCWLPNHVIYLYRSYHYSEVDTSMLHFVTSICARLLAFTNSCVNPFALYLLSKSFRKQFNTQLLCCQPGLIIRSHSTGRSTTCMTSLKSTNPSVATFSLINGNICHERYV
T3 sequence (P08588 whole entry): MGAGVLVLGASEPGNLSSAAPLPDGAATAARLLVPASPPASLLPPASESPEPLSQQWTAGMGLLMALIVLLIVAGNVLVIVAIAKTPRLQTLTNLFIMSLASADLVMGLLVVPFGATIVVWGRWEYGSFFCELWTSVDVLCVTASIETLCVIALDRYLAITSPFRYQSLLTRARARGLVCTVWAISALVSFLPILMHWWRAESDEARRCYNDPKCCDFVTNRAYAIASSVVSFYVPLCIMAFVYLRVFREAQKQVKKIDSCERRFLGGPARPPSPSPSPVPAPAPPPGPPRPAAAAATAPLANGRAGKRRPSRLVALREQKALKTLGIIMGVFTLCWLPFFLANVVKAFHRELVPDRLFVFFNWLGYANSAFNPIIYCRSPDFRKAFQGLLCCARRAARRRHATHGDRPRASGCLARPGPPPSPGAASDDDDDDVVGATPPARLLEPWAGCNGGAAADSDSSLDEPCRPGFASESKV
T8 sequence (Q99500 whole entry, species assumed): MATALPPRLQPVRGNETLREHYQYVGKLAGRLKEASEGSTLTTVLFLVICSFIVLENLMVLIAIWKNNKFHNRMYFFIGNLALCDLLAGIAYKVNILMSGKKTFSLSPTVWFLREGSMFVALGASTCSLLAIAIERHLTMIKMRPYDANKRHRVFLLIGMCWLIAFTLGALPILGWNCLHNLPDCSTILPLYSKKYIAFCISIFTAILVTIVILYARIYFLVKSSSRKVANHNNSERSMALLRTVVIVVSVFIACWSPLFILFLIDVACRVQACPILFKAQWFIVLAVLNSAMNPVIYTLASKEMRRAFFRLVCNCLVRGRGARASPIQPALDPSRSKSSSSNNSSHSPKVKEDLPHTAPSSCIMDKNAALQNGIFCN
T11 sequence (Q9UBY5 whole entry, species assumed): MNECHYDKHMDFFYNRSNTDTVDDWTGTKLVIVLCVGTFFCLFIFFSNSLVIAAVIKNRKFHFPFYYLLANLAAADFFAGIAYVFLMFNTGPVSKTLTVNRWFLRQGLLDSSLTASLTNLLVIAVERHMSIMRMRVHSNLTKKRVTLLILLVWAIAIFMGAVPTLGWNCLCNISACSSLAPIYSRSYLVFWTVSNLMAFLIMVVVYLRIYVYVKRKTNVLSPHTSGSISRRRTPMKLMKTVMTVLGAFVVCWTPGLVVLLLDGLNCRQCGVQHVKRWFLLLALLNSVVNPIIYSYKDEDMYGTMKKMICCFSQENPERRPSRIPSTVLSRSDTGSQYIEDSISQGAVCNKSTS
T20 sequence (P30411 whole entry): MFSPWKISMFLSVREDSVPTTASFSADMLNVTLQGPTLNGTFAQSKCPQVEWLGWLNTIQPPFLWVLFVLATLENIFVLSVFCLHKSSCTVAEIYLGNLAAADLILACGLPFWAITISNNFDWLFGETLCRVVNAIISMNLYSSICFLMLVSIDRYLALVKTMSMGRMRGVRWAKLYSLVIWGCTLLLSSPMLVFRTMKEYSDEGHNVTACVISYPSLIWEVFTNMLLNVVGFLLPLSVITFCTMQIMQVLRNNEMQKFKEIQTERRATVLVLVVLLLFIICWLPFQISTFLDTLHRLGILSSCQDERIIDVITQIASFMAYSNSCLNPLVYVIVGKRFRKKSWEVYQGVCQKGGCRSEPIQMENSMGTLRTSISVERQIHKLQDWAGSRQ
T14 sequence (P28223 whole entry): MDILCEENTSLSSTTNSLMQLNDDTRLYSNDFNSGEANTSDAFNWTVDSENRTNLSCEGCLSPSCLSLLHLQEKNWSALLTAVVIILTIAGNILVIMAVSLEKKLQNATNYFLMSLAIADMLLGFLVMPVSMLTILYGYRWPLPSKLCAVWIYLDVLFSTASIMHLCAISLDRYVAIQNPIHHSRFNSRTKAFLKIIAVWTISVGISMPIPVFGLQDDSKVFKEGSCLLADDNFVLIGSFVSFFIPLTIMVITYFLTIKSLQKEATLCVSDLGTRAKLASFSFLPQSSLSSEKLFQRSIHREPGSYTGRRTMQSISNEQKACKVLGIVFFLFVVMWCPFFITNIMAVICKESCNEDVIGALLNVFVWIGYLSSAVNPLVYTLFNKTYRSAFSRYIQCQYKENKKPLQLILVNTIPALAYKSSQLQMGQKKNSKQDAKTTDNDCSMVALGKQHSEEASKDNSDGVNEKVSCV
T12 sequence (P0DMS8 whole entry): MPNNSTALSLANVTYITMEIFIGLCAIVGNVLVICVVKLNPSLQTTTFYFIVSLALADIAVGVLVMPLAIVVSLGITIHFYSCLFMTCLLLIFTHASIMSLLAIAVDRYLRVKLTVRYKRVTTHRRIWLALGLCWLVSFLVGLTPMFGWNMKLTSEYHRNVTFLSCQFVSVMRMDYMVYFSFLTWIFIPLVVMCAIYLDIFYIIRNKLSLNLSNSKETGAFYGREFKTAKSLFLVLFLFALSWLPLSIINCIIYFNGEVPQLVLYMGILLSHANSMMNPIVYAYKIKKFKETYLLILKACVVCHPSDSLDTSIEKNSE
T5 sequence (P47211 whole entry): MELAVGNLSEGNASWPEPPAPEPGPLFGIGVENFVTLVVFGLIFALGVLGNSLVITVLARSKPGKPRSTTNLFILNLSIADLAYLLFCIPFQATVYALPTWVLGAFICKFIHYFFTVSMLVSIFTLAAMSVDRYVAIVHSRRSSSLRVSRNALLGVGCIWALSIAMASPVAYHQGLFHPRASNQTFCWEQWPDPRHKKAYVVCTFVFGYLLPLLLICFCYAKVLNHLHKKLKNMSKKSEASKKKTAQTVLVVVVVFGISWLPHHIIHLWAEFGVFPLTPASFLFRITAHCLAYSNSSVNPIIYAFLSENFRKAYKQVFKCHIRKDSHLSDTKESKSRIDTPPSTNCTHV
T21 sequence (P21462 whole entry, species assumed): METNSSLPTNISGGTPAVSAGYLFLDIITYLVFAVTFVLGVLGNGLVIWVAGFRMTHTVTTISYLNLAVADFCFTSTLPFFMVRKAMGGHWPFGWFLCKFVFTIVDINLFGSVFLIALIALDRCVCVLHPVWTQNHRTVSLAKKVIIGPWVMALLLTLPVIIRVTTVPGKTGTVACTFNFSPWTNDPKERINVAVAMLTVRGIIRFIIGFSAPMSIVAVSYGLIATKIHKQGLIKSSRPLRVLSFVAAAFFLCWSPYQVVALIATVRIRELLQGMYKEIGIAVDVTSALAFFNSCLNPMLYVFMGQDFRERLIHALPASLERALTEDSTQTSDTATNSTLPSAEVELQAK
T6 sequence (Q92633 whole entry, species assumed): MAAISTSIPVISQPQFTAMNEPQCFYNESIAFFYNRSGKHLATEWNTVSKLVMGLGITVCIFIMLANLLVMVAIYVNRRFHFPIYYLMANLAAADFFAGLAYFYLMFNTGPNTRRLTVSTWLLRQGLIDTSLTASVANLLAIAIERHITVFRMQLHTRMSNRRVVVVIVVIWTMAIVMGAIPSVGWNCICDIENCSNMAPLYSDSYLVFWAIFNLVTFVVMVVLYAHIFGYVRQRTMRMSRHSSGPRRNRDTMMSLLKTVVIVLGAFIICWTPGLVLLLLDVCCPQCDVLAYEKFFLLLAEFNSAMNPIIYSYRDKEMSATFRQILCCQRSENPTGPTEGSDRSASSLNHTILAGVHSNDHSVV
T16 sequence (Q9UKP6 whole entry, species assumed): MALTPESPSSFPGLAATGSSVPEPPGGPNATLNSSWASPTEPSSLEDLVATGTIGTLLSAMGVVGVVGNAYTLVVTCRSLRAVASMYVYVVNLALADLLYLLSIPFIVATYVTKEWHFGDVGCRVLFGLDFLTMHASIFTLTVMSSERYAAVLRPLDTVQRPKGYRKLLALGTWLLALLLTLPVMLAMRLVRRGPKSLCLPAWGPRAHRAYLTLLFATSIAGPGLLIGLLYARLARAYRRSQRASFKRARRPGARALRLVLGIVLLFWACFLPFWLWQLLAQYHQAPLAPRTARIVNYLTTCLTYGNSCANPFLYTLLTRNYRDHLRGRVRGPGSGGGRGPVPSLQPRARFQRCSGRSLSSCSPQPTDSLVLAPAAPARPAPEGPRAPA

`CCN1C(=O)COc2nc(-c3ccc(C4(N)CC(O)C4)cc3)c(-c3ccccc3)cc21.O=C(O)C(O)C(O)C(=O)O` [VAD044, 6-(4-(1-amino-3-hydroxycyclobutyl)phenyl)-1-ethyl-7-phenyl-1H-pyrido[2,3-b][1,4]oxazin-2(3H)-one L-tartrate] was tested, and the activation at 10 µM (V1A; V1A, 10 μM, read-out: AGONIST mean % increase in activity) was -1.5%, the inhibition at 10 µM (V1A; [2]) was 2.5% and the activation at 10 µM (D5; [3]) was -0.8%. For the same molecule, the inhibition at 10 µM (D5; [2]) was 35.4%, the activation at 10 µM (ADRB1; ADRB1, 10 μM, read-out: AGONIST mean % increase in activity) was -0.1% and the inhibition at 10 µM (ADRB1; [2]) was 4.2%. For the same molecule, the activation at 10 µM (M2; [3]) was 0%, the inhibition at 10 µM (M2; [2]) was 20.6% and the activation at 10 µM (GAL1; GAL1, 10 μM, read-out: AGONIST mean % increase in activity) was 0.3%. It also gave an inhibition at 10 µM (GAL1; [2]) of 3.4%, an activation at 10 µM (LPA1; [3]) of -1.3% and an inhibition at 10 µM (LPA1; [2]) of 57.4%. For the same molecule, the activation at 10 µM (BB2; BB2, 10 μM, read-out: AGONIST mean % increase in activity) was -0.9%, the inhibition at 10 µM (BB2; [2]) was 0.9% and the inhibition at 10 µM (Kv1.5) was < 25%. The activation at 10 µM (S1P3; S1P3, 10 μM, read-out: AGONIST mean % increase in activity) was -0.4%, the inhibition at 10 µM (S1P3; [2]) was -0.6% and the “AGONIST mean % increase in activity” value (Thrombin-activated PARs) was 0%. For the same molecule, the “ANTAGONIST mean % inhibition” value (Thrombin-activated PARs) was −1.2%, the IC50 (full length AKT1) was 125 nM and the activation at 10 µM (CCK2; CCK2, 10 μM, read-out: AGONIST mean % increase in activity) was -0.2%. For the same molecule, the inhibition at 10 µM (CCK2; [2]) was 8.3%, the activation at 10 µM (ETA; ETA, 10 μM, read-out: AGONIST mean % increase in activity) was -0.4% and the inhibition at 10 µM (ETA; [2]) was 10.5%. The activation at 10 µM (LPA3; LPA3, 10 μM, read-out: AGONIST mean % increase in activity) was -0.7%, the inhibition at 10 µM (LPA3; [2]) was -0.2% and the IC50 [1] was 50 to 130 nM. For the same molecule, the activation at 10 µM (A3; [3]) was 0.2%, the inhibition at 10 µM (A3; [2]) was 28.5% and the “AGONIST mean % increase in activity” value (P2Y1; 10 μM) was 1%. For the same molecule, the inhibition at 10 µM (P2Y1; [2]) was 50.6%, the IC50 (MCF7 tumor cells) was ~50 nM and the inhibition at 10 µM (AKT2) was 95%. The activation at 10 µM (5-HT2A; [3]) was 1.3%, the inhibition at 10 µM (5-HT2A; [2]) was -0.7% and the activation at 10 µM (OX1; OX1, 10 μM, read-out: AGONIST mean % increase in activity) was -1.8%. The inhibition at 10 µM (OX1; [2]) was -3.8%, the activation at 10 µM (GPR14; [3]) was 29.5% and the inhibition at 10 µM (GPR14; [2]) was 52.9%. For the same molecule, the activation at 10 µM (CB2; CB2, 10 μM, read-out: AGONIST mean % increase in activity) was -0.9%, the inhibition at 10 µM (CB2; [2]) was 10.6% and the “AGONIST mean % increase in activity” value (A2A; A2A, 10 μM) was 2.3%. The inhibition at 10 µM (A2A; [2]) was 12.5%, the inhibition at 10 µM (AKT3) was 72% and the inhibition at 10 µM (minK (Homo sapiens)) was < 25%. The activation at 10 µM (H1; H1, 10 μM, read-out: AGONIST mean % increase in activity) was -0.2%, the inhibition at 10 µM (H1; [2]) was 3.8% and the activation at 10 µM (BDKR2; BDKR2, 10 μM, read-out: AGONIST mean % increase in activity) was -0.4%. For the same molecule, the inhibition at 10 µM (BDKR2; [2]) was 14.6%, the inhibition at 10 µM (p38α; 10 μM) was 84% and the IC50 (p38α; 10-point titration curve) was > 10000 nM. For the same molecule, the activation at 10 µM (FPR1; FPR1, 10 μM, read-out: AGONIST mean % increase in activity) was -0.1%, the inhibition at 10 µM (FPR1; [2]) was 13.3% and the activation at 10 µM (DP; DP, 10 μM, read-out: AGONIST mean % increase in activity) was -1.7%. The inhibition at 10 µM (DP; [2]) was 5.8%.
